Patent US9409884B2 (Rigel Pharmaceuticals, Inc., priority 2012, dated 2016)

Molecular target: AMPK
Test: AMPK activation, enzyme-linked immunosorbent assay
Type: biochemical
Details: Table 14, compounds of Table 7
Method in brief: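 Read-out: ELISA, used to detect compound-driven activation of AMPK.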

Structure (SMILES)	EC50 [nM]
CS(=O)(=O)c1ccc(OC2CCN(C(=O)c3ccc(C(=O)Nc4ccc(Oc5ccc(S(F)(F)(F)(F)F)cc5)nc4)nc3)CC2)cc1 [Compound 7-2, 5-(4-(4-(methylsulfonyl)phenoxy)piperidine-1-carbonyl)-N-(6-(4-(pentafluorosulfanyl)phenoxy)pyridin-3-yl)picolinamide]	< 1000
COc1ccc(C(=O)C2CCN(C(=O)c3ccc(C(=O)Nc4ccc(Oc5ccc(S(F)(F)(F)(F)F)cc5)nc4)nc3)CC2)cc1 [Compound 7-3, 5-(4-(4-methoxybenzoyl)piperidine-1-carbonyl)-N-(6-(4-(pentafluorosulfanyl)phenoxy)pyridin-3-yl)picolinamide]	< 1000
O=C(Nc1ccc(Oc2ccc(S(F)(F)(F)(F)F)cc2)nc1)c1ccc(C(=O)N2CCC(C(=O)c3ccc(N4CCCC4)cc3)CC2)cn1 [Compound 7-4, 5-(4-(4-(pyrrolidin-1-yl)benzoyl)piperidine-1-carbonyl)-N-(6-(4-(pentafluorosulfanyl)phenoxy)pyridin-3-yl)picolinamide]	< 1000
N#Cc1ccc(OC2CCN(C(=O)c3ccc(C(=O)Nc4ccc(Oc5ccc(S(F)(F)(F)(F)F)cc5)nc4)nc3)CC2)cc1 [Compound 7-5, 5-(4-(4-cyanophenoxy)piperidine-1-carbonyl)-N-(6-(4-(pentafluorosulfanyl)phenoxy)pyridin-3-yl)picolinamide]	< 1000
CC(C)S(=O)(=O)c1ccc(N2CCN(C(=O)c3ccc(C(=O)Nc4ccc(Oc5ccc(S(F)(F)(F)(F)F)cc5)nc4)nc3)CC2)cc1 [Compound 7-6, 5-(4-(4-(isopropylsulfonyl)phenyl)piperazine-1-carbonyl)-N-(6-(4-(pentafluorosulfanyl)phenoxy)pyridin-3-yl)picolinamide]	< 1000
COc1ccc(C(=O)C2CCCN(C(=O)c3ccc(C(=O)NC4CCN(Cc5ccc(C#N)cc5)CC4)cn3)C2)cc1 (centres unmarked) [Compound 7-7, N-(1-(4-cyanobenzyl)piperidin-4-yl)-6-(3-(4-methoxybenzoyl)piperidine-1-carbonyl)nicotinamide]	1000 to 10000
COc1ccc(CN2CCC(NC(=O)c3ccc(C(=O)N4CCCC(C(=O)c5ccc(OC)cc5)C4)nc3)CC2)cc1 (centres unmarked) [Compound 7-8, 6-(3-(4-methoxybenzoyl)piperidine-1-carbonyl)-N-(1-(4-methoxybenzyl)piperidin-4-yl)nicotinamide]	1000 to 10000
COc1ccc(C(=O)C2CCCN(C(=O)c3ccc(C(=O)NC4CCN(Cc5ccc(F)cc5)CC4)cn3)C2)cc1 (centres unmarked) [Compound 7-9, N-(1-(4-fluorobenzyl)piperidin-4-yl)-6-(3-(4-methoxybenzoyl)piperidine-1-carbonyl)nicotinamide]	1000 to 10000
COc1ccc(C(=O)C2CCCN(C(=O)c3ccc(C(=O)Nc4ccc(Oc5ccc(F)cc5)nc4)cn3)C2)cc1 (centres unmarked) [Compound 7-10, N-(6-(4-fluorophenoxy)pyridin-3-yl)-6-(3-(4-methoxybenzoyl)piperidine-1-carbonyl)nicotinamide]	1000 to 10000
COc1ccc(C(=O)C2CCCN(C(=O)c3ccc(C(=O)Nc4ccc(Oc5ccc(C(C)=O)cc5)nc4)cn3)C2)cc1 (centres unmarked) [Compound 7-11, N-(6-(4-acetylphenoxy)pyridin-3-yl)-6-(3-(4-methoxybenzoyl)piperidine-1-carbonyl)nicotinamide]	1000 to 10000
Cc1cc(OC2CCN(C(=O)c3ccc(C(=O)NC4CCN(Cc5ccc(C#N)cc5)CC4)cn3)CC2)ccc1S(C)(=O)=O [Compound 7-13, N-(1-(4-cyanobenzyl)piperidin-4-yl)-6-(4-(3-methyl-4-(methylsulfonyl)phenoxy)piperidine-1-carbonyl) nicotinamide]	1000 to 10000
Cc1cc(OC2CCN(C(=O)c3ccc(C(=O)NC4CCN(Cc5ccc(OC(F)(F)F)cc5)CC4)cn3)CC2)ccc1S(C)(=O)=O [Compound 7-14, 6-(4-(3-methyl-4-(methylsulfonyl)phenoxy)piperidine-1-carbonyl)-N-(1-(4-(trifluoromethoxy)benzyl)piperidin-4-yl)nicotinamide]	1000 to 10000
Cc1cc(OC2CCN(C(=O)c3ccc(C(=O)Nc4ccc(Oc5ccc(C#N)cc5)nc4)cn3)CC2)ccc1S(C)(=O)=O [Compound 7-15, N-(6-(4-cyanophenoxy)pyridin-3-yl)-6-(4-(3-methyl-4-(methylsulfonyl)phenoxy)piperidine-1-carbonyl) nicotinamide]	1000 to 10000
COc1ccc(CN2CCC(NC(=O)c3ccc(C(=O)N4CCC(Oc5ccc(S(C)(=O)=O)c(C)c5)CC4)nc3)CC2)cc1 [Compound 7-16, N-(1-(4-methoxybenzyl)piperidin-4-yl)-6-(4-(3-methyl-4-(methylsulfonyl)phenoxy)piperidine-1-carbonyl) nicotinamide]	1000 to 10000
COCCN(C(=O)c1ccc(C(=O)N2CCC(C(=O)c3ccc(OC)cc3)CC2)nc1)C1CCN(Cc2ccc(C#N)cc2)CC1 [Compound 7-17, N-(1-(4-cyanobenzyl)piperidin-4-yl)-6-(4-(4-methoxybenzoyl)piperidine-1-carbonyl)-N-(2-methoxyethyl)nicotinamide]	< 1000
COCCN(C(=O)c1ccc(C(=O)N2CCC(C(=O)c3ccc(OC)cc3)CC2)nc1)C1CCN(Cc2ccc(OC(F)(F)F)cc2)CC1 [Compound 7-18, 6-(4-(4-methoxybenzoyl)piperidine-1-carbonyl)-N-(2-methoxyethyl)-N-(1-(4-(trifluoromethoxy)benzyl)piperidin-4-yl)nicotinamide]	< 1000
COc1ccc(C(=O)C2CCN(C(=O)c3ncc(C(=O)NC4CCN(Cc5ccc(C#N)cc5)CC4)cc3CCCNC(=O)CCOCCOCCOCCOCCNC(=O)CCCC[C@@H]3SC[C@@H]4NC(=O)N[C@@H]43)CC2)cc1 [Compound 7-19, N-(1-(4-cyanobenzyl)piperidin-4-yl)-5-(5,21-dioxo-25-((3aS,4S,6aR)-2-oxohexahydro-1H-thieno[3,4-d]imidazol-4-yl)-8,11,14,17-tetraoxa-4,20-diazapentacosyl)-6-(4-(4-methoxybenzoyl)piperidine-1-carbonyl)nicotinamide]	10000 to 20000
CC(=O)c1ccc(Oc2ccc(NC(=O)c3ccc(C(=O)N4CCC(Oc5ccc6sc(C)nc6c5)CC4)nc3)cn2)cc1 [Compound 7-20, N-(6-(4-acetylphenoxy)pyridin-3-yl)-6-(4-(2-methylbenzo[d]thiazol-5-yloxy)piperidine-1-carbonyl)nicotinamide]	< 1000
COc1ccc(CN2CCC(NC(=O)c3ccc(C(=O)N4CCC(C(=O)c5ccc(OC)cc5)CC4)nc3)[C@@H](F)C2)cc1 (stereo partly drawn) [Compound 7-21, N-((3,4-trans)-3-fluoro-1-(4-methoxybenzyl)piperidin-4-yl)-6-(4-(4-methoxybenzoyl)piperidine-1-carbonyl)nicotinamide]	< 1000
Cc1nc2cc(OC3CCN(C(=O)c4ccc(C(=O)NC5CCN(Cc6ccc(C#N)cc6)CC5)cn4)CC3)ccc2s1 [Compound 7-22, N-(1-(4-cyanobenzyl)piperidin-4-yl)-6-(4-(2-methylbenzo[d]thiazol-5-yloxy)piperidine-1-carbonyl)nicotinamide]	< 1000
Cc1nc2cc(OC3CCN(C(=O)c4ccc(C(=O)NC5CCN(Cc6ccc(OC(F)(F)F)cc6)CC5)cn4)CC3)ccc2s1 [Compound 7-23, 6-(4-(2-methylbenzo[d]thiazol-5-yloxy)piperidine-1-carbonyl)-N-(1-(4-(trifluoromethoxy)benzyl)piperidin-4-yl)nicotinamide]	< 1000
COc1ccc(CN2CCC(NC(=O)c3ccc(C(=O)N4CCC(Oc5ccc6sc(C)nc6c5)CC4)nc3)CC2)cc1 [Compound 7-24, N-(1-(4-methoxybenzyl)piperidin-4-yl)-6-(4-(2-methylbenzo[d]thiazol-5-yloxy)piperidine-1-carbonyl)nicotinamide]	< 1000
Cc1nc2cc(OC3CCN(C(=O)c4ccc(C(=O)Nc5ccc(Oc6ccc(C#N)cc6)nc5)cn4)CC3)ccc2s1 [Compound 7-25, N-(6-(4-cyanophenoxy)pyridin-3-yl)-6-(4-(2-methylbenzo[d]thiazol-5-yloxy)piperidine-1-carbonyl)nicotinamide]	< 1000
COc1ccc(CN2CCC(NC(=O)c3ccc(C(=O)N4CCC(C(=O)c5ccc(OC)cc5)CC4)nc3)[C@H](F)C2)cc1 (stereo partly drawn) [Compound 7-26, N-((3,4-trans)-3-fluoro-1-(4-methoxybenzyl)piperidin-4-yl)-6-(4-(4-methoxybenzoyl)piperidine-1-carbonyl)nicotinamide]	< 1000
COc1ccc(C(=O)C2CCN(C(=O)c3ccc(C(=O)NC4CCN(Cc5cccc(C#N)c5)C[C@@H]4F)cn3)CC2)cc1 (stereo partly drawn) [Compound 7-27, N-((3,4-trans)-1-(3-cyanobenzyl)-3-fluoropiperidin-4-yl)-6-(4-(4-methoxybenzoyl)piperidine-1-carbonyl)nicotinamide]	< 1000
COc1ccc(C(=O)C2CCN(C(=O)c3ccc(C(=O)NC4CCN(Cc5ccc(C(F)(F)F)cc5)C[C@@H]4F)cn3)CC2)cc1 (stereo partly drawn) [Compound 7-28, N-((3,4-trans)-3-fluoro-1-(4-(trifluoromethyl)benzyl)piperidin-4-yl)-6-(4-(4-methoxybenzoyl)piperidine-1-carbonyl)nicotinamide]	< 1000
COc1ccc(C(=O)C2CCN(C(=O)c3ccc(C(=O)NC4CCN(Cc5cccc(C#N)c5)C[C@H]4F)cn3)CC2)cc1 (stereo partly drawn) [Compound 7-29, N-((3,4-trans)-1-(3-cyanobenzyl)-3-fluoropiperidin-4-yl)-6-(4-(4-methoxybenzoyl)piperidine-1-carbonyl)nicotinamide]	< 1000
COc1ccc(C(=O)C2CCN(C(=O)c3ccc(C(=O)NC4CCN(Cc5cccc(OC)c5)C[C@H]4F)cn3)CC2)cc1 (stereo partly drawn) [Compound 7-30, N-((3,4-trans)-3-fluoro-1-(3-methoxybenzyl)piperidin-4-yl)-6-(4-(4-methoxybenzoyl)piperidine-1-carbonyl)nicotinamide]	< 1000
COc1ccc(C(=O)C2CCN(C(=O)c3ccc(C(=O)NC4CCN(Cc5cccc(C(F)(F)F)c5)C[C@H]4F)cn3)CC2)cc1 (stereo partly drawn) [Compound 7-32, N-((3,4-trans)-3-fluoro-1-(3-(trifluoromethyl)benzyl)piperidin-4-yl)-6-(4-(4-methoxybenzoyl)piperidine-1-carbonyl)nicotinamide]	< 1000
